One compound from PMC13184981, “Discovery and Development of a Potent LIMK2 Isoform-Specific Degrader” (ACS Chemical Biology, 2026) can be followed below.

As usually defined, the EC50 is the concentration needed to bring the measured effect to its halfway point. A high value points to weaker potency.

For assay [1], the target named is T1, NanoLuc-tagged LIMK2 and Halo-tagged CRBN (Homo sapiens, UniProt P53671+Q96SW2).
T1 construct: CRBN vector in-house NV1531; host or cells: HEK293T
Put plainly: NanoBRET cellular ternary complex formation, LIMK2. Format: cell-based. The text has this:
Next, we assessed ternary complex formation for the parent and lead PROTACs in live cells using the NanoBRET proximity assay. A ternary complex assay system was established using NanoLuc-tagged LIMKs and Halo-tagged CRBN. Formation of the ternary complex upon PROTAC addition was quantified by measuring the BRET signal. […] However, they differed in the strength of the ternary complex. […] We also confirmed the differences in ternary complex strength using the orthogonal PROXICapture approach, in which MOLT-4 cell lysate was passed over immobilized FLAG-tagged CRBN preincubated with THNAN69.
Gene encoding LIMK1 (Promega, NV3391) and LIMK2 (Promega, NV1531) proteins cloned in frame with NanoLuc fusion tag at the C-Terminus and gene encoding cereblon (generated in-house) cloned in frame with Halo Tag at the N-Terminus, were used to measure the end-point ternary complex formation between the PROTACs and LIMK1 and LIMK2, respectively. […] To measure BRET, NanoBRET NanoGlo Substrate + Extracellular NanoLuc Inhibitor (Promega, N2162) was added to cells as per the manufacturer’s protocol, and filtered luminescence was measured on a PHERAstar FSX plate reader (BMG Labtech) equipped with a luminescence filter pair (450 nm BP filter (donor) and 610 nm LP filter (acceptor)). […]

A further assay has as its target T2, EGFP–LIMK2 (Homo sapiens, UniProt P53671).
T2 construct: P2A remnant (from EGFP-LIMK2-P2A-mCherry; that residues stay on LIMK2 after self-cleavage is own knowledge) (C); expressed in transfected cells; host or cells: HuCCT1 (lentiviral transduction, doxycycline-inducible pCW57 vector)
Briefly: EGFP-LIMK2 depletion live-cell assay (Incucyte). In kind it is cell-based. As for the experimental part: To enable a more comprehensive and rapid evaluation of the synthesized PROTACs, we generated a stable, doxycycline-inducible HuCCT1 cell line that expressed an N-terminally fused EGFP–LIMK2 protein. […] The degradation activity of the synthesized PROTACs set was screened at five concentrations ranging from 1 nM to 1000 nM over 72 h using live-cell imaging (Figure E).
LIMK2 was cloned into pcDNA5-EGFP-NLS-P2A-mCherry-PTS1 (Addgene plasmid #87803) by replacing the NLS sequence with the LIMK2 sequence. pcDNA5-EGFP-NLS-P2A-mCherry-PTS1 was a gift from Andrea Musacchio. Subsequently, EGFP-[…]-P2A-mCherry was cloned into the lentiviral vector pCW57-MCS1-P2A-MCS2 (Hygro) (Addgene plasmid #80922) to generate pCW57-HygB-EGFP-LIMK2-P2A-mCherry. pCW57-MCS1-P2A-MCS2 (Hygro) was a gift from Adam Karpf.
HEK293T cells (ATCC, CRL-3216) were cultured in Dulbecco’s Modified Eagle’s Medium (DMEM), while HUCCT1 cells (ATCC, CRL-1997) were cultured in RPMI medium supplemented with 10% fetal bovine serum (FBS) and 1% penicillin/streptomycin (P/S) antibiotic mix (all from Sigma-Aldrich, St. Louis, Missouri, USA). Lentiviral particles were produced in HEK293T cells using pCW57-HygB-EGFP-LIMK2-[…]P2A-mCherry, pMD2.G, and psPAX2. HUCCT1 cells were transduced with lentivirus to express LIMK2.
Briefly, the cells were plated and propagated in 6-well plates overnight. The next day, transduction with viruses was performed. Two days later, transduced cells with pCW57-HygB-EGFP-LIMK2-P2A-mCherry plasmids were selected using 100 μg/mL Hygromycin B. After at least three passages, the cells were sorted for the same populations of RFP- and GFP-expressing cells using the SH800S Cell Sorter (Sony Biotechnology, San Jose, CA, USA). Stable pools of cells were maintained in the same medium used for selection.
To assess the turnover of LIMK2, we used the Incucyte S3 or XS5 live-cell imaging system and performed the assay as previously described. , Briefly, 2,000 HUCCT1 cells stably expressing EGFP-LIMK2-P2A-mCherry were seeded per well in a 384-well plate in 50 μL of RPMI medium supplemented with 10% fetal bovine serum (FBS) and 1% penicillin/streptomycin. Cells were incubated for 24 h before treatment. To induce LIMK2 expression, 1 μg/mL of doxycycline (Sigma-Aldrich, D9891–1G) was added at the time of seeding.
After 24 h, 50 μL of medium containing either 0.1% DMSO or the desired concentration of PROTACs was added. Fluorescence in three channels–GFP, RFP, and phase contrast (cell confluence)–was monitored every 2 h for 72 h using the Incucyte S3 or XS5 (Sartorius, Germany). LIMK2 turnover was quantified by calculating the ratio of total fluorescence intensity of RFP to GFP. Each time point represents the average ratio from three technical replicates.

The structures appear in SMILES notation.

T2 sequence (P53671 whole entry): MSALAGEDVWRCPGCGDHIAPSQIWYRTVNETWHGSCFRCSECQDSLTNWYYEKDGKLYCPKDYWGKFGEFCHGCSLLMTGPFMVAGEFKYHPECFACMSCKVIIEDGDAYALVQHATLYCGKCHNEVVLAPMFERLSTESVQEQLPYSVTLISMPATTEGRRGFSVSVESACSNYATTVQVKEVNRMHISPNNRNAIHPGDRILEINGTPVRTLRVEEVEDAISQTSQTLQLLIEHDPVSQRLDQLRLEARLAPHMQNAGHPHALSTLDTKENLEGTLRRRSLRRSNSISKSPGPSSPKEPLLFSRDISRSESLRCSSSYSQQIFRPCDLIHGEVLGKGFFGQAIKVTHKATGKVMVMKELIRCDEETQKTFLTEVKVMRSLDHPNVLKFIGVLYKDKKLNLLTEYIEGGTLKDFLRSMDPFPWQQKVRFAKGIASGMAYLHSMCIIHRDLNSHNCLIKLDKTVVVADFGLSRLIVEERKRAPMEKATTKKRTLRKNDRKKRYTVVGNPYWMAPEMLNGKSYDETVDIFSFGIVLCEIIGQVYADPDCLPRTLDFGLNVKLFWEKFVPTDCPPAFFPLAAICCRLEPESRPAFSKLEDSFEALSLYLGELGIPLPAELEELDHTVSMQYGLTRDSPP
T1 sequence (P53671 whole entry): as above
T1 sequence (Q96SW2 whole entry): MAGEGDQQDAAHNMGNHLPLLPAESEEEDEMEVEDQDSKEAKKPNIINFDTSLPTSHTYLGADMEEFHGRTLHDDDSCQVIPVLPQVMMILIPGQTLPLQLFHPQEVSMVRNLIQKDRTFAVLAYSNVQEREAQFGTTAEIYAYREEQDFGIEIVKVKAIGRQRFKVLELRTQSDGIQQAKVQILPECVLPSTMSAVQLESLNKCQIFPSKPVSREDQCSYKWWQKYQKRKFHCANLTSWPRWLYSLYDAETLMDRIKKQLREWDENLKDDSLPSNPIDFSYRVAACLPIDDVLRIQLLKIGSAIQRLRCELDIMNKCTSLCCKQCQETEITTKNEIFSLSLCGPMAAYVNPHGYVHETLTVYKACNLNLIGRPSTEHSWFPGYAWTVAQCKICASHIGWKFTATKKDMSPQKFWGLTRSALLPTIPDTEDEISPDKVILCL
T1 sequence (Q16531 whole entry partner): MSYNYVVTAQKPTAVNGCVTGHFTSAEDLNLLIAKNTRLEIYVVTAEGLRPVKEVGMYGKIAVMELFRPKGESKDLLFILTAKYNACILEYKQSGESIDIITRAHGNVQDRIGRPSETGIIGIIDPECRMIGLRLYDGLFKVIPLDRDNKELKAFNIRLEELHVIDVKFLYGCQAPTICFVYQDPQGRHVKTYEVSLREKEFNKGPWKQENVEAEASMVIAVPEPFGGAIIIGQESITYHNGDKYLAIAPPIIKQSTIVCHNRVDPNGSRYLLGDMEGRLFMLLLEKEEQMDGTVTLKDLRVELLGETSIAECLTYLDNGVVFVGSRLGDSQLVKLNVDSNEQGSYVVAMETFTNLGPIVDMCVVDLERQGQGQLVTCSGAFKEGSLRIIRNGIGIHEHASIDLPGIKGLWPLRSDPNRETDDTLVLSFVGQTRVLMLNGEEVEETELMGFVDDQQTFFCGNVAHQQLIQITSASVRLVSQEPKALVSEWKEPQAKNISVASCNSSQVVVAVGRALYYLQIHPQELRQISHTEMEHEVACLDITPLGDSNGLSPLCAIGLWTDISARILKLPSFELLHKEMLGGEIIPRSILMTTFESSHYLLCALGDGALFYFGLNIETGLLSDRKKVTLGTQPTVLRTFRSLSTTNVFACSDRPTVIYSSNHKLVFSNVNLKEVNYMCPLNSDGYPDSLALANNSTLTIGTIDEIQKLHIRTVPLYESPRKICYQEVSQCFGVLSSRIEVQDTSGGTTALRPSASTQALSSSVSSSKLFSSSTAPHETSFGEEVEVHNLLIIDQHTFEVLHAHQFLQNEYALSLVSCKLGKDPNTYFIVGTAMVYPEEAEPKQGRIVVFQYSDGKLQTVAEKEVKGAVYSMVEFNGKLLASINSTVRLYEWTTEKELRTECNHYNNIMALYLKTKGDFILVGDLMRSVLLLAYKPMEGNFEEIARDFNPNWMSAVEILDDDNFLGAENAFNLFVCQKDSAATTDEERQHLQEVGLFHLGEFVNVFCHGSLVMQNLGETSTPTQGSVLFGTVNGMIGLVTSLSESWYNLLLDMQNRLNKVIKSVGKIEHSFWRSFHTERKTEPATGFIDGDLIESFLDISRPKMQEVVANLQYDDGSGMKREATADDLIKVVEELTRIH

Take `Cc1c(OCc2cn(CCCCC(=O)Nc3ncc(-c4cc(C(F)F)nn4-c4c(Cl)cccc4Cl)s3)nn2)cccc1N1CCC(=O)NC1=O` [22b]: the EC50 in assay [1] stood at 77 nM. Further, the Dmax is 88.2% at EGFP–LIMK2 (10 nM PROTAC), 97.6% on EGFP–LIMK2 (100 nM PROTAC) and 98.5% at EGFP–LIMK2 (1000 nM PROTAC). In addition, the “time to maximum degradation after PROTAC treatment” value at EGFP–LIMK2 (EGFP–LIMK2 monitored over 72 h) is “approximately 60 h”. Moreover, the “EGFP–LIMK2 degradation with MLN4924 cotreatment” value at EGFP–LIMK2 (PROTAC 10, 100 and 1000 nM + MLN4924 1 μM) is recorded as “no LIMK2 degradation”.
